# Experimental data as given in US20200348288A1, “A method and a system for analysis of cardiomyocyte function” (IMEC VZW, priority 2017, published 2020).
# System: cardiomyocytes
# Test: analysis of cardiomyocyte function (microelectrode array recording with simultaneous reflective lensfree imaging) before and after administering of a drug
# Type: cell-based
# Details: after vs before administering of drug, FIG. 5
# Description: During or in-between measurements, a drug may be administered 210 to the cardiomyocytes in order to allow predicting of adverse effects on electrical and/or contractile function of the cardiomyocytes.
# After drug treatment, analysis 212 on the cardiomyocytes is again performed. The electrical and/or contractile representations before and after drug treatment may be compared in order to predict adverse effects.
# The method further comprises recording 304 electrical signals from the cardiomyocytes. The electrical signals may be acquired by the microelectrode array 112, which may be arranged in contact with the cardiomyocytes on the substrate 110. The electrical signals may further be transferred to readout circuitry 120 recording electrical signals received from the microelectrode array 112.
# The method further comprises simultaneously with the recording 304, acquiring 306 a sequence of images. Each image may be acquired by detecting light wavefront information in reflective lensfree imaging and reconstructing the image of the cardiomyocytes based on the detected light wavefront information.
# The method further comprises determining 308 an electrical representation relating to an intracellular and/or extracellular action potential, and/or an impedimetric electrical image of a cardiomyocyte based on the recorded electrical signals. […]
compound,measurement,value
Cc1ccc2c(c1)C(=O)C1(O)CCN(c3ccccc3)C1=N2 (centres unmarked) [blebbistatin],contractile function of the cardiomyocytes (contractile representation),severe adverse effects
same,electrical function of the cardiomyocytes (electrical representation),not affected
